# How the values were obtained:
# [1] = target: T1, Ephrin type-A receptor 8 (Homo sapiens) (UniProt P29322); experiment: Inhibition of EPHA8 (unknown origin) assessed as residual activity at 100 nM by KINOMEscan analysis relative to control
# T1 sequence (whole entry): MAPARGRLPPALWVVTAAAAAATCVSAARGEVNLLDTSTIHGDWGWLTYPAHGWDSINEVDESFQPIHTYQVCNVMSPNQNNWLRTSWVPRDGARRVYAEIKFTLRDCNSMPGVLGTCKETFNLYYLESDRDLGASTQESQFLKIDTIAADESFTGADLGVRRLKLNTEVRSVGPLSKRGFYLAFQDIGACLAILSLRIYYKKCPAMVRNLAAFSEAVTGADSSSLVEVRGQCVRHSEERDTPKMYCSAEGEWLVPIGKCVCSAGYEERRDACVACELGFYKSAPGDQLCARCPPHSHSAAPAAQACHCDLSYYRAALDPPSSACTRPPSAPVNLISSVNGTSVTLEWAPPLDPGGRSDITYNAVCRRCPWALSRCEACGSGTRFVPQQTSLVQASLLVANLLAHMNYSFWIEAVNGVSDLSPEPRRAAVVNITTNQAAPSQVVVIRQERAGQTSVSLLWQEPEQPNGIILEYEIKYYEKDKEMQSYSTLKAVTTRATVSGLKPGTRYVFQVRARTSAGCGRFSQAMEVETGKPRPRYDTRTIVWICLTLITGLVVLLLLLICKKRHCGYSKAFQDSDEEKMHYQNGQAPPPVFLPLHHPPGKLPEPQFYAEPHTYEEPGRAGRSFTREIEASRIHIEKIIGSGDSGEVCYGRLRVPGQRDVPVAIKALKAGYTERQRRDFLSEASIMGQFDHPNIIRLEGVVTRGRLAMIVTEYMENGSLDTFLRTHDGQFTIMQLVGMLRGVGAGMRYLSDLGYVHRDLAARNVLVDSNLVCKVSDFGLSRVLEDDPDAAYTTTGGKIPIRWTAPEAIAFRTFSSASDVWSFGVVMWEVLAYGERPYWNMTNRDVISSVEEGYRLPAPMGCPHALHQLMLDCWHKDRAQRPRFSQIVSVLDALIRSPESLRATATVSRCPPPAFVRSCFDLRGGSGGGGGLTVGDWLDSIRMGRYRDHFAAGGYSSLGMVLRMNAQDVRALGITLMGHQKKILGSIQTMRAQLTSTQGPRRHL
# [2] = target: T2, Mitogen-activated protein kinase 15 (Homo sapiens) (UniProt Q8TD08); experiment: Inhibition of ERK8 (unknown origin) assessed as residual activity at 100 nM by KINOMEscan analysis relative to control
# T2 sequence (whole entry): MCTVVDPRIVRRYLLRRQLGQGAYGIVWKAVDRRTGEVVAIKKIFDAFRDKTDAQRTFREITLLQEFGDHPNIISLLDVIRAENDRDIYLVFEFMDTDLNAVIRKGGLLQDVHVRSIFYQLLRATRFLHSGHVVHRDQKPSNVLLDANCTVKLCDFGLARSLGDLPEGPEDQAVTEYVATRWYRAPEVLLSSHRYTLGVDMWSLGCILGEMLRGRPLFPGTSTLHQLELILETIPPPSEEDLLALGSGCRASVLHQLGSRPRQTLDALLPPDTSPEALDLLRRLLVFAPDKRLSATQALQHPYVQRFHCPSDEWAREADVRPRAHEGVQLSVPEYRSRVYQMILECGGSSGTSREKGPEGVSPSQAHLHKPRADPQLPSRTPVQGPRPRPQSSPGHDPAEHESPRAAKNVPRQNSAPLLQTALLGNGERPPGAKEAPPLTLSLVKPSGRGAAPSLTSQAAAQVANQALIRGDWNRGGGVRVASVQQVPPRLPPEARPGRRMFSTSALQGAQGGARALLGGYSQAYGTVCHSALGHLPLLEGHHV
# [3] = tested on: Receptor-type tyrosine-protein kinase FLT3 (Homo sapiens), P36888 [UNDEFINED MUTATION]; experiment: Inhibition of FLT3 ITD mutant (unknown origin) assessed as residual activity at 100 nM by KINOMEscan analysis relative to control
# Chain of Receptor-type tyrosine-protein kinase FLT3 (Homo sapiens), P36888 [UNDEFINED MUTATION] (P36888 whole entry, looked up, change not shown): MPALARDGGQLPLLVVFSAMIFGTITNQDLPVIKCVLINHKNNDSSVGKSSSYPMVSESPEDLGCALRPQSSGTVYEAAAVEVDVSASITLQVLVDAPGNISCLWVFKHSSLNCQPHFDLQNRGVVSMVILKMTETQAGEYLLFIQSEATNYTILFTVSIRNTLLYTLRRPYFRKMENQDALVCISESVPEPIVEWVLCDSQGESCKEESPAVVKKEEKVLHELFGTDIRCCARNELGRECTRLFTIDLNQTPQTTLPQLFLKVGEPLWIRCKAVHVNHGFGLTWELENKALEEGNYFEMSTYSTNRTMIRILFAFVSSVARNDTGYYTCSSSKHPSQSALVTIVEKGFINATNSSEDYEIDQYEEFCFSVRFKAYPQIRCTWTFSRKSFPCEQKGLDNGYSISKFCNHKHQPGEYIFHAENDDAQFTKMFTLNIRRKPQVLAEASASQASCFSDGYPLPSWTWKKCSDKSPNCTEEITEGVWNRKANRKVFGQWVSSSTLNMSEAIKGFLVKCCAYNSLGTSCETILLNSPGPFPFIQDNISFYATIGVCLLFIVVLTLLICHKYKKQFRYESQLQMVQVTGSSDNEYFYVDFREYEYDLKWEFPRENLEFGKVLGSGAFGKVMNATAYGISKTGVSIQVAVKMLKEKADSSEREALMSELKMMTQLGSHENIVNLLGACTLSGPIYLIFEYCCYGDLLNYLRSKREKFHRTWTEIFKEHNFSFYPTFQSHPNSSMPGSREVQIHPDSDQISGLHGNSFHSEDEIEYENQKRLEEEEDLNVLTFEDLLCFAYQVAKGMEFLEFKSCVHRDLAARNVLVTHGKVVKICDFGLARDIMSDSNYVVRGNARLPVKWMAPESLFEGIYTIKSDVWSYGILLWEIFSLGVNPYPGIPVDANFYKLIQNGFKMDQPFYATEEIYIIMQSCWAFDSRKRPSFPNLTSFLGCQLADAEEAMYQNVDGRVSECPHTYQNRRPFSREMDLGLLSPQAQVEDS
# [4] = target: Mitogen-activated protein kinase kinase kinase kinase 4 (Homo sapiens) (UniProt O95819); experiment: Inhibition of MAP4K4 (unknown origin) assessed as residual activity at 100 nM by KINOMEscan analysis relative to control
# Chain of Mitogen-activated protein kinase kinase kinase kinase 4 (Homo sapiens) (O95819 2-1239 limits assumed): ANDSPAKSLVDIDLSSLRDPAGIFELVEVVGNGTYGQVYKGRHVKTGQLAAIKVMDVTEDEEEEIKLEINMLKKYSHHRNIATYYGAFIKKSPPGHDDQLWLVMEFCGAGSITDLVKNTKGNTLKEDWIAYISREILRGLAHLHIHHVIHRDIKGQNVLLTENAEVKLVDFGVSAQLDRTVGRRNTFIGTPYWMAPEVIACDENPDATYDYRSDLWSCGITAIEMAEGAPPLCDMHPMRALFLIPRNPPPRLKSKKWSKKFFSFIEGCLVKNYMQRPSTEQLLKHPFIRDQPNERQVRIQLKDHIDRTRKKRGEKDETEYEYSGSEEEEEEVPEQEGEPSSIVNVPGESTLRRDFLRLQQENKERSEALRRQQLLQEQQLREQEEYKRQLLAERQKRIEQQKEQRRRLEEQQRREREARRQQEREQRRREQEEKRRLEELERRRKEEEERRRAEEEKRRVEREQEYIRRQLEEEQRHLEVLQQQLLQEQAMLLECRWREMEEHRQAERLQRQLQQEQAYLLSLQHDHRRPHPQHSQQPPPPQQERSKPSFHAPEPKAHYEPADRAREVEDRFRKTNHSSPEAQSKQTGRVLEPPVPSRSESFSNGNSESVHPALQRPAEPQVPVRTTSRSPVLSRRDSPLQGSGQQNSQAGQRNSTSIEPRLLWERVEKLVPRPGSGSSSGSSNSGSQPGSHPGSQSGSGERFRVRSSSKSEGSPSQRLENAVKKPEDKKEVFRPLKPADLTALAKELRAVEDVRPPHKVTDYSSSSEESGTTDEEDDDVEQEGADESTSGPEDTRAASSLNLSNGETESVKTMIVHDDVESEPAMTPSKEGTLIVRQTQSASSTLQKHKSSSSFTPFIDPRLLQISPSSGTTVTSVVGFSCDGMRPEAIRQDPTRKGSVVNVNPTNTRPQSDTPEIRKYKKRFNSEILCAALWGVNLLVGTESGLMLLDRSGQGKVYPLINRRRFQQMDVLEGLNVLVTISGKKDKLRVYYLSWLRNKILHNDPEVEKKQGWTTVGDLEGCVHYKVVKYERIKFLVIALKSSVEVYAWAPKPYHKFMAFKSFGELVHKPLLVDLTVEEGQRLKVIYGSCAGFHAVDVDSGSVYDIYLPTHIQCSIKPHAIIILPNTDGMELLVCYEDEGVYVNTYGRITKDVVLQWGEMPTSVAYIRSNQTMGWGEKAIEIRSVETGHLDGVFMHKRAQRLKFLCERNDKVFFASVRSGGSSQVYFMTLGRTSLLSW
# [5] = target: Platelet-derived growth factor receptor alpha (Homo sapiens) (UniProt P16234); experiment: Inhibition of PDGFRA (unknown origin) assessed as residual activity at 100 nM by KINOMEscan analysis relative to control
# Chain of Platelet-derived growth factor receptor alpha (Homo sapiens) (P16234 whole entry): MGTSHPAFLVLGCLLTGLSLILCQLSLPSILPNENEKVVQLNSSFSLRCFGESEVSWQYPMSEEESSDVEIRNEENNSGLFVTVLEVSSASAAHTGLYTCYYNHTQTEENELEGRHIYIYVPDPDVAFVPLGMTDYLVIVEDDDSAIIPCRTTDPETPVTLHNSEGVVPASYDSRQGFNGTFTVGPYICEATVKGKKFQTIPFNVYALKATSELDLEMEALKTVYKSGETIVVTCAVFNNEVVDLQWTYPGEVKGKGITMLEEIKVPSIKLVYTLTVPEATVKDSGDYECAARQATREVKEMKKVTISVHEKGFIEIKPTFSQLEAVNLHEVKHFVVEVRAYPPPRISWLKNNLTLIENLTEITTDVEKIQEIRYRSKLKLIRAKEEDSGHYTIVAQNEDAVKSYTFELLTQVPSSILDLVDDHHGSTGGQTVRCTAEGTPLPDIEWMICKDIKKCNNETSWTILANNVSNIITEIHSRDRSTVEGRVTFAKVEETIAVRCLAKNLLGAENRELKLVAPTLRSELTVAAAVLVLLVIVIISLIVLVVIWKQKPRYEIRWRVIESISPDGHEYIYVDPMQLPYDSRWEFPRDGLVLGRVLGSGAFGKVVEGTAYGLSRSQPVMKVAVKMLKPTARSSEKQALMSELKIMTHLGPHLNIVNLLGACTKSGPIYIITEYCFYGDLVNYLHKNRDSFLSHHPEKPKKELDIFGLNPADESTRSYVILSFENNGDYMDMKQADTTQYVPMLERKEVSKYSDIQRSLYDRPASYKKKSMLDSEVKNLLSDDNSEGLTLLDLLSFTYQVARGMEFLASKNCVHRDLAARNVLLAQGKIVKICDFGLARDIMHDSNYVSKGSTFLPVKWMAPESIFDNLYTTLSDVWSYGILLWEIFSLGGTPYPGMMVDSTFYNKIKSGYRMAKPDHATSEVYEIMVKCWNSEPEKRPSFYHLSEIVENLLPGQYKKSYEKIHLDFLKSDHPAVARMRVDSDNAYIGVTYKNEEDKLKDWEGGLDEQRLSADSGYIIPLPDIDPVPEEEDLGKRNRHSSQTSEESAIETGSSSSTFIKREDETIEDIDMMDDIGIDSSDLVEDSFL
# [6] = target: T3, Dual serine/threonine and tyrosine protein kinase (Homo sapiens) (UniProt Q6XUX3); experiment: Inhibition of RIPK5 (unknown origin) assessed as residual activity at 100 nM by KINOMEscan analysis relative to control
# T3 sequence (whole entry): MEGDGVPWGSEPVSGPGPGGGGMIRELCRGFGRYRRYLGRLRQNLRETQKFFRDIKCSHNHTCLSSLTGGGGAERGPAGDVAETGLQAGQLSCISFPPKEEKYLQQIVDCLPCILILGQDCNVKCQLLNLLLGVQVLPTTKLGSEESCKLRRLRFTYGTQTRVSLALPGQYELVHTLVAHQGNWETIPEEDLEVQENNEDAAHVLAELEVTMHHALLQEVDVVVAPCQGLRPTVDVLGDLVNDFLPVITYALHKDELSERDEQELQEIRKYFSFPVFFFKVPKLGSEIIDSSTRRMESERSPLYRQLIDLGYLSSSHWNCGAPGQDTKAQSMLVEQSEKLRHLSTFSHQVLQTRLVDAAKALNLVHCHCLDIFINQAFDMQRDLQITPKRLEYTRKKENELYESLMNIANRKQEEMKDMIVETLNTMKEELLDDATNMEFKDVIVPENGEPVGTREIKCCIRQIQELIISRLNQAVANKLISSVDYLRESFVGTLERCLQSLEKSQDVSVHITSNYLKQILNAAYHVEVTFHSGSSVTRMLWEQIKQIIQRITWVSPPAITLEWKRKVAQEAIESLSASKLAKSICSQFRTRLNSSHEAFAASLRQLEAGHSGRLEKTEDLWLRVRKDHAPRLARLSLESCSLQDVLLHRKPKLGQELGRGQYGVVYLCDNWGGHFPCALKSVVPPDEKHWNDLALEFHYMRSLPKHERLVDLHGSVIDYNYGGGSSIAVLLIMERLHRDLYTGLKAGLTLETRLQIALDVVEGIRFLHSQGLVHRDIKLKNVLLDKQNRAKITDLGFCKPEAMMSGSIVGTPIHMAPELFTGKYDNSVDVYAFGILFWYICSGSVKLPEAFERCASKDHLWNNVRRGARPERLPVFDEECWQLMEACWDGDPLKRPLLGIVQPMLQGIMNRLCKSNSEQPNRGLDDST
# [7] = target: Proto-oncogene tyrosine-protein kinase ROS (Homo sapiens) (UniProt P08922); experiment: Inhibition of ROS1 (unknown origin) assessed as residual activity at 100 nM by KINOMEscan analysis relative to control
# [8] = target: Ribosomal protein S6 kinase alpha-5 (Homo sapiens) (UniProt O75582); experiment: Inhibition of C-terminal RPS6KA5 kinetic domain 2 (unknown origin) assessed as residual activity at 100 nM by KINOMEscan analysis relative to control
# Chain of Ribosomal protein S6 kinase alpha-5 (Homo sapiens) (O75582 whole entry, looked up, the tested form may be a part): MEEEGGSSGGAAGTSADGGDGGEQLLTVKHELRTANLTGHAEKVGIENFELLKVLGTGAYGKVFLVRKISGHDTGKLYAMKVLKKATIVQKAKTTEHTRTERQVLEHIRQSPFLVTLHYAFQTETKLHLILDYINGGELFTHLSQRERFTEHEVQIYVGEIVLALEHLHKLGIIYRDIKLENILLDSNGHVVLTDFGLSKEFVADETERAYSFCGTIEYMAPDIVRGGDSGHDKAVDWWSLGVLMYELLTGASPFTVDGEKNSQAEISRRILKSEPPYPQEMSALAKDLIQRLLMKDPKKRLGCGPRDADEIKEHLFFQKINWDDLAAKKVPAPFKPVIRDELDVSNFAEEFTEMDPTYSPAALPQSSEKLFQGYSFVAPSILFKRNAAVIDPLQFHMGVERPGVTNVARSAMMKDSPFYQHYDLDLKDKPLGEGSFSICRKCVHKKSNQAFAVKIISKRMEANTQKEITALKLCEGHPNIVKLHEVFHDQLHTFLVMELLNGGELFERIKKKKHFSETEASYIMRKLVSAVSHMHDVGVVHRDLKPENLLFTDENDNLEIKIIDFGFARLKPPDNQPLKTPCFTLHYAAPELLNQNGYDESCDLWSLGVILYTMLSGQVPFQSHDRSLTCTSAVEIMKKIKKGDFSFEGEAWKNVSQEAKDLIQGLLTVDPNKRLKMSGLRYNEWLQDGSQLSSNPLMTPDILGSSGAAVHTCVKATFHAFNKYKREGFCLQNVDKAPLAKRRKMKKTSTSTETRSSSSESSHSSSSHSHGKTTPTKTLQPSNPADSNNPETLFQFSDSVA
smiles,measurement,setting,value
COc1cc2ncnc(N[C@H](C)c3cccc4ccccc34)c2cc1OC,Activity,[1],75%
same,Activity,[2],88%
same,Activity,[3],100%
same,Activity,[4],65%
same,Activity,[5],100%
same,Activity,[6],96%
same,Activity,[7],100%
same,Activity,[8],52%
